Reference: patent US20140011799A1 (Bristol-Myers Squibb Company, priority 2012, published 2014)

Legend:
Endothelial lipase (EL) = target: T1, Endothelial lipase (EL) (Homo sapiens, UniProt Q9Y5X9); assay: Endothelial lipase (EL) enzymatic assay, fluorescent substrate A10070 in DMPG vesicles; type: biochemical; settings: EL from conditioned media of HT-1080 cells; compound preincubated 30 min at 37° C; read-out: EL IC50
T1 construct: HT-1080 cells that were transformed using RAGE technology (Athersys) to overexpress endogenous EL; endogenous in cells; conditioned medium used
T1 sequence (Q9Y5X9 21-500): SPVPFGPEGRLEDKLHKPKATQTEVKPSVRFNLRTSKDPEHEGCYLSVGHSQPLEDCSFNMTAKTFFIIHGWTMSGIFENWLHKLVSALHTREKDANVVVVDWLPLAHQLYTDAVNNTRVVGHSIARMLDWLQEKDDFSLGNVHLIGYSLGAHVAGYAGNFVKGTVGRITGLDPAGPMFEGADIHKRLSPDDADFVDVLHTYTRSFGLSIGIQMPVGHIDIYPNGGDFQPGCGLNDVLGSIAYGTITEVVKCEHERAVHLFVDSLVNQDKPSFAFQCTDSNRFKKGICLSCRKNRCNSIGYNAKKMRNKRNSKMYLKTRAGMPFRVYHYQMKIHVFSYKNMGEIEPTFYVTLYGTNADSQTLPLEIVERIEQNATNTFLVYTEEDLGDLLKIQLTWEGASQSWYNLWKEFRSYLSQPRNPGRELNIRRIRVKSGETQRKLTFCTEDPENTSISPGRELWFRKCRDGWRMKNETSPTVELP
Summary of the method: (§1)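 EL from conditioned medium of HT-1080 cells engineered to overexpress endogenous EL; HL partially purified from conditioned medium of HL-overexpressing COS cells. Enzyme preincubated with compound 30 min at 37° C in 50 mM HEPES pH 8.0, 50 mM NaCl, 1 mM CaCl2; DMPG vesicles carrying FRET substrate (0.11 mole fraction) then added.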

hepatic lipase (HL) = target: T2, hepatic lipase (HL) (Homo sapiens, UniProt P11150); assay: Hepatic lipase (HL) enzymatic assay, fluorescent substrate A10070 in DMPG vesicles; type: biochemical; settings: HL partially purified from conditioned media of COS cells; compound preincubated 30 min at 37° C; read-out: HL IC50
T2 construct: made in house; host or cells: COS cells (conditioned medium, partially purified)
T2 sequence (P11150 23-499): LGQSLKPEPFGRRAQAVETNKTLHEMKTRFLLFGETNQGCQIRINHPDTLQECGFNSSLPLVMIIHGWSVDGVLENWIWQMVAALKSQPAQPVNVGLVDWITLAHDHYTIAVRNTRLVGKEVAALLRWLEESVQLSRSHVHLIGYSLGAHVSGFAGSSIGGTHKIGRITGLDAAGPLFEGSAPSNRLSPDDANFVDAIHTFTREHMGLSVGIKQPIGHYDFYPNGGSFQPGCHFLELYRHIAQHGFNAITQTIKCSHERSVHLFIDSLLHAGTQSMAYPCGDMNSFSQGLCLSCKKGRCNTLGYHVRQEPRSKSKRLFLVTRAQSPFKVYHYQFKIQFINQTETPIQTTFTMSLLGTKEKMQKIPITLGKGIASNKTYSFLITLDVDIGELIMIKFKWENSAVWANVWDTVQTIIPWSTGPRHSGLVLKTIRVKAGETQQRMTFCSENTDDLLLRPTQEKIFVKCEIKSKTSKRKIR
Summary of the method: as §1

| IC50 (Endothelial lipase (EL)) [nM] | IC50 (hepatic lipase (HL)) [nM] | Structure (SMILES) |
| --- | --- | --- |
| 54 | 25 | CC(C)C(O)C(=O)NCc1nnc(C(c2nc3ccc(-c4ccccc4)cc3s2)S(C)(=O)=O)o1 (stereo not shown) [Example 154, 2-hydroxy-3-methyl-N-((5-((methylsulfonyl)(6-phenyl-1,3-benzothiazol-2-yl)methyl)-1,3,4-oxadiazol-2-yl)methyl)butanamide] |
| < 10 | 24 | CC(C)Cn1cc(-c2cc(F)c3nc(C(c4nnc(CC5SC(=O)NC5=O)o4)S(=O)(=O)Cc4ccccc4)sc3c2)cn1 (stereo not shown) [Example 165, 5-((5-((benzylsulfonyl)(4-fluoro-6-(1-isobutyl-1H-pyrazol-4-yl)-1,3-benzothiazol-2-yl)methyl)-1,3,4-oxadiazol-2-yl)methyl)-1,3-thiazolidine-2,4-dione] |
| < 10 | 209 | NS(=O)(=O)NCc1nnc(C(c2nc3ccc(-c4cccc(C(=O)NCCO)c4)cc3s2)S(=O)(=O)CCC(F)(F)F)o1 (stereo not shown) [Example 196, N-(2-hydroxyethyl)-3-(2-((5-((sulfamoylamino)methyl)-1,3,4-oxadiazol-2-yl)((3,3,3-trifluoropropyl)sulfonyl)methyl)-1,3-benzothiazol-6-yl)benzamide] |
| 13 | 14 | COc1cc2nc(C(c3nnc(CNS(=O)(=O)NC(=O)OC(C)(C)C)o3)S(C)(=O)=O)sc2cc1-c1cnn(C)c1 (stereo not shown) [Example 159, 2-methyl-2-propanyl {[(5-{[5-methoxy-6-(1-methyl-1H-pyrazol-4-yl)-1,3-benzothiazol-2-yl](methylsulfonyl)methyl}-1,3,4-oxadiazol-2-yl)methyl]sulfamoyl}carbamate] |
| 147 | 6550 | CC(C)(C)OC(=O)NS(=O)(=O)NCc1nnc(C(c2nc3ccc(-c4cncnc4)cc3s2)S(=O)(=O)Cc2ccccc2)o1 (stereo not shown) [Example 121, tert-butyl (((5-((benzylsulfonyl)(6-(5-pyrimidinyl)-1,3-benzothiazol-2-yl)methyl)-1,3,4-oxadiazol-2-yl)methyl)sulfamoyl)carbamate] |
| 240 | 32 | CS(=O)(=O)NCc1nnc(C(c2nc3ccc(-c4ccc(F)nc4)cc3s2)S(C)(=O)=O)o1 (stereo not shown) [Example 172, N-((5-((6-(6-Fluoro-3-pyridinyl)-1,3-benzothiazol-2-yl)(methylsulfonyl)methyl)-1,3,4-oxadiazol-2-yl)methyl)methanesulfonamide] |
| < 10 | 81 | CC1(O)CN(C(=O)c2cccc(-c3ccc4nc(C(c5nnc(CNS(N)(=O)=O)o5)S(=O)(=O)CCC(F)(F)F)sc4c3)c2)C1 (stereo not shown) [Example 192, N-((5-((6-(3-((3-Hydroxy-3-methyl-1-azetidinyl)carbonyl)phenyl)-1,3-benzothiazol-2-yl)((3,3,3-trifluoropropyl)sulfonyl)methyl)-1,3,4-oxadiazol-2-yl)methyl)sulfamide] |
| 17 | 783 | CC1(O)CN(C(=O)c2cccc(-c3ccc4nc(C(c5nnc(CC6(C)NC(=O)NC6=O)o5)S(C)(=O)=O)sc4c3)c2)C1 (stereo not shown) [Example 204, 5-{[5-({6-[3-(3-hydroxy-3-methylazetidine-1-carbonyl)phenyl]-1,3-benzothiazol-2-yl} (methanesulfonyl)methyl)-1,3,4-oxadiazol-2-yl]methyl}-5-methyl-imidazolidine-2,4-dione] |
| < 10 | < 10 | Cc1nc(C)c(-c2ccc3nc(C(c4nnc(CC5SC(=O)NC5=O)o4)S(C)(=O)=O)sc3c2)s1 (stereo not shown) [Example 102, 5-((5-((6-(2,4-dimethyl-1,3-thiazol-5-yl)-1,3-benzothiazol-2-yl)(methylsulfonyl)methyl)-1,3,4-oxadiazol-2-yl)methyl)-1,3-thiazolidine-2,4-dione] |
| 16 | 125 | CC1(Cc2nnc(C(c3nc4ccc(-c5cccc(C(=O)N6CC(F)C6)c5)cc4s3)S(C)(=O)=O)o2)NC(=O)NC1=O (stereo not shown) [Example 206, 5-{[5-({6-[3-(3-fluoroazetidine-1-carbonyl)phenyl]-1,3-benzothiazol-2-yl} (methanesulfonyl)methyl)-1,3,4-oxadiazol-2-yl]methyl}-5-methyl-imidazolidine-2,4-dione] |
| < 10 | 220 | CS(=O)(=O)C(c1nnc(CNS(N)(=O)=O)o1)c1nc2ccc(Br)cc2s1 (stereo not shown) [Example 114, N-((5-((6-bromo-1,3-benzothiazol-2-yl)(methylsulfonyl)methyl)-1,3,4-oxadiazol-2-yl)methyl) sulfamide] |
| < 10 | < 10 | NS(=O)(=O)NCc1nnc(C(c2nc3ccc(-c4cc(F)cc(Cl)c4)cc3s2)S(=O)(=O)Cc2ccccc2)o1 (stereo not shown) [Example 144, N-((5-((benzylsulfonyl)(6-(3-chloro-5-fluorophenyl)-1,3-benzothiazol-2-yl)methyl)-1,3,4-oxadiazol-2-yl)methyl) sulfamide] |
| < 10 | < 10 | NS(=O)(=O)NCc1nnc(C(c2nc3ccc(-c4cc(Cl)cc(Cl)c4)cc3s2)S(=O)(=O)Cc2ccccc2)o1 (stereo not shown) [Example 143, N-((5-((benzylsulfonyl)(6-(3,5-dichlorophenyl)-1,3-benzothiazol-2-yl)methyl)-1,3,4-oxadiazol-2-yl)methyl) sulfamide] |
| < 10 | 2570 | CN1CCN(C(=O)c2cccc(-c3ccc4nc(C(c5nnc(CNS(N)(=O)=O)o5)S(=O)(=O)CC5CC5)sc4c3)c2)CC1 (stereo not shown) [Example 197, N-((5-(((cyclopropylmethyl)sulfonyl)(6-(3-((4-methyl-1-piperazinyl)carbonyl)phenyl)-1,3-benzothiazol-2-yl)methyl)-1,3,4-oxadiazol-2-yl)methyl)sulfamide] |
| 17 | 626 | CC(C)(C)OC(=O)NS(=O)(=O)NCc1nnc(C(c2nc3ccc(-c4ccc(C(=O)N5CCOCC5)c(Cl)c4)cc3s2)S(=O)(=O)Cc2ccccc2)o1 (stereo not shown) [Example 147, 2-methyl-2-propanyl [({5-[(benzylsulfonyl){6-[3-chloro-4-(4-morpholinylcarbonyl)phenyl]-1,3-benzothiazol-2-yl}methyl]-1,3,4-oxadiazol-2-yl}methyl)sulfamoyl] carbamate] |
| 32 | 55 | CC1(Cc2nnc(C(c3nc4ccc(-c5cccc(C(=O)NC6CC(F)(F)C6)c5)cc4s3)S(C)(=O)=O)o2)NC(=O)NC1=O (stereo not shown) [Example 223, N-(3,3-difluorocyclobutyl)-3-{2-[methanesulfonyl({5-[(4-methyl-2,5-dioxo-imidazolidin-4-yl)methyl]-1,3,4-oxadiazol-2-yl})methyl]-1,3-benzothiazol-6-yl} benzamide] |
| 13 | 94 | CS(=O)(=O)C(c1nnc(CNS(N)(=O)=O)o1)c1nc2ccc(-c3cccc(C(=O)N4CC[C@H](O)C4)c3)cc2s1 (stereo partly drawn) [Example 266, N-({5-[(6-{3-[(3S)-3-hydroxypyrrolidine-1-carbonyl]phenyl}-1,3-benzothiazol-2-yl) (methanesulfonyl)methyl]-1,3,4-oxadiazol-2-yl}methyl)aminosulfonamide] |
| < 10 | 201 | COCCS(=O)(=O)C(c1nnc(CNS(N)(=O)=O)o1)c1nc2ccc(-c3cccc(C(=O)N4CCN(C)CC4)c3)cc2s1 (stereo not shown) [Example 200, N-((5-(((2-methoxyethyl)sulfonyl)(6-(3-((4-methyl-1-piperazinyl)carbonyl)phenyl)-1,3-benzothiazol-2-yl)methyl)-1,3,4-oxadiazol-2-yl)methyl)sulfamide] |

| Structure (SMILES) | IC50 (Endothelial lipase (EL)) [nM] | IC50 (hepatic lipase (HL)) [nM] |
| --- | --- | --- |
| COc1cc(-c2ccc3nc(C(c4nnc(CNS(N)(=O)=O)o4)S(=O)(=O)Cc4ccccc4)sc3c2)ccn1 (stereo not shown) [Example 137, N-((5-((benzylsulfonyl)(6-(2-methoxy-4-pyridinyl)-1,3-benzothiazol-2-yl)methyl)-1,3,4-oxadiazol-2-yl)methyl) sulfamide] | < 10 | < 10 |
| COC(=O)CCS(=O)(=O)C(c1nnc(CC2SC(=O)NC2=O)o1)c1nc2cc(F)c(-c3ccccc3)cc2s1 (stereo not shown) [Example 161, methyl 3-(((5-((2,4-dioxo-1,3-thiazolidin-5-yl)methyl)-1,3,4-oxadiazol-2-yl)(5-fluoro-6-phenyl-1,3-benzothiazol-2-yl)methyl)sulfonyl)propanoate] | < 10 | < 10 |
